Reference: ChEMBL document CHEMBL3046319, “PCR-RFLP detection of the E198A mutation conferring resistance to benzimidazoles in field isolates of Monilinia laxa from Greece” (Crop Prot, 2012)

How the values were obtained:
Assay type in all cases: functional
Monilinia laxa [1] = test: Fungicidal activity against Monilinia laxa isolate MLX1 assessed as mycelial growth at 1 ug/ml at 25 degC after 4 days
Monilinia laxa [2] = test: Fungicidal activity against Monilinia laxa isolate MLG1 assessed as mycelial growth at 1 ug/ml at 25 degC after 4 days
Monilinia laxa [3] = test: Fungicidal activity against Monilinia laxa isolate MLA1 assessed as mycelial growth at 1 ug/ml at 25 degC after 4 days
Monilinia laxa [4] = test: Fungicidal activity against Monilinia laxa isolate MLK1 assessed as mycelial growth at 1 ug/ml at 25 degC after 4 days
Monilinia laxa [5] = test: Fungicidal activity against Monilinia laxa isolate MLBO5 assessed as mycelial growth at 1 ug/ml at 25 degC after 4 days
Monilinia laxa [6] = test: Fungicidal activity against Monilinia laxa isolate MLBO2 assessed as mycelial growth at 1 ug/ml at 25 degC after 4 days
Monilinia laxa [7] = test: Fungicidal activity against Monilinia laxa isolate MLK12 assessed as mycelial growth at 1 ug/ml at 25 degC after 4 days
Monilinia laxa [8] = test: Fungicidal activity against Monilinia laxa isolate MLC2 assessed as mycelial growth at 1 ug/ml at 25 degC after 4 days
Monilinia laxa [9] = test: Fungicidal activity against Monilinia laxa isolate MLP4 assessed as mycelial growth at 1 ug/ml at 25 degC after 4 days
Monilinia laxa [10] = test: Fungicidal activity against Monilinia laxa isolate MLX5 assessed as mycelial growth at 1 ug/ml at 25 degC after 4 days
Monilinia laxa [11] = test: Fungicidal activity against Monilinia laxa isolate MLP2 assessed as mycelial growth at 1 ug/ml at 25 degC after 4 days
Monilinia laxa [12] = test: Fungicidal activity against Monilinia laxa isolate MLBO2 assessed as mycelial growth at 0.5 ug/ml at 25 degC after 4 days
Monilinia laxa [13] = test: Fungicidal activity against Monilinia laxa isolate MLP4 assessed as mycelial growth at 0.5 ug/ml at 25 degC after 4 days
Monilinia laxa [14] = test: Fungicidal activity against Monilinia laxa isolate MLX1 assessed as mycelial growth at 0.5 ug/ml at 25 degC after 4 days
Monilinia laxa [15] = test: Fungicidal activity against Monilinia laxa isolate MLP2 assessed as mycelial growth at 0.5 ug/ml at 25 degC after 4 days
Monilinia laxa [16] = test: Fungicidal activity against Monilinia laxa isolate MLA1 assessed as mycelial growth at 0.5 ug/ml at 25 degC after 4 days
Monilinia laxa [17] = test: Fungicidal activity against Monilinia laxa isolate MLK12 assessed as mycelial growth at 0.5 ug/ml at 25 degC after 4 days
Monilinia laxa [18] = test: Fungicidal activity against Monilinia laxa isolate MLK1 assessed as mycelial growth at 0.5 ug/ml at 25 degC after 4 days
Monilinia laxa [19] = test: Fungicidal activity against Monilinia laxa isolate MLG1 assessed as mycelial growth at 0.5 ug/ml at 25 degC after 4 days
Monilinia laxa [20] = test: Fungicidal activity against Monilinia laxa isolate MLBO5 assessed as mycelial growth at 0.5 ug/ml at 25 degC after 4 days
Monilinia laxa [21] = test: Fungicidal activity against Monilinia laxa isolate MLC2 assessed as mycelial growth at 0.5 ug/ml at 25 degC after 4 days
Monilinia laxa [22] = test: Fungicidal activity against Monilinia laxa isolate MLX5 assessed as mycelial growth at 0.5 ug/ml at 25 degC after 4 days
Monilinia laxa [23] = test: Fungicidal activity against Monilinia laxa isolate MLBO5 assessed as mycelial growth at 0.1 ug/ml at 25 degC after 4 days
Monilinia laxa [24] = test: Fungicidal activity against Monilinia laxa isolate MLBO2 assessed as mycelial growth at 0.1 ug/ml at 25 degC after 4 days
Monilinia laxa [25] = test: Fungicidal activity against Monilinia laxa isolate MLP4 assessed as mycelial growth at 0.1 ug/ml at 25 degC after 4 days
Monilinia laxa [26] = test: Fungicidal activity against Monilinia laxa isolate MLA1 assessed as mycelial growth at 0.1 ug/ml at 25 degC after 4 days
Monilinia laxa [27] = test: Fungicidal activity against Monilinia laxa isolate MLX5 assessed as mycelial growth at 0.1 ug/ml at 25 degC after 4 days
Monilinia laxa [28] = test: Fungicidal activity against Monilinia laxa isolate MLX1 assessed as mycelial growth at 0.1 ug/ml at 25 degC after 4 days
Monilinia laxa [29] = test: Fungicidal activity against Monilinia laxa isolate MLC2 assessed as mycelial growth at 0.1 ug/ml at 25 degC after 4 days
Monilinia laxa [30] = test: Fungicidal activity against Monilinia laxa isolate MLK1 assessed as mycelial growth at 0.1 ug/ml at 25 degC after 4 days
Monilinia laxa [31] = test: Fungicidal activity against Monilinia laxa isolate MLP2 assessed as mycelial growth at 0.1 ug/ml at 25 degC after 4 days
Monilinia laxa [32] = test: Fungicidal activity against Monilinia laxa isolate MLG1 assessed as mycelial growth at 0.1 ug/ml at 25 degC after 4 days
Monilinia laxa [33] = test: Fungicidal activity against Monilinia laxa isolate MLK12 assessed as mycelial growth at 0.1 ug/ml at 25 degC after 4 days
Monilinia laxa [34] = test: Fungicidal activity against Monilinia laxa isolate MLX1 assessed as mycelial growth at 0.05 ug/ml at 25 degC after 4 days
Monilinia laxa [35] = test: Fungicidal activity against Monilinia laxa isolate MLG1 assessed as mycelial growth at 0.05 ug/ml at 25 degC after 4 days
Monilinia laxa [36] = test: Fungicidal activity against Monilinia laxa isolate MLBO2 assessed as mycelial growth at 0.05 ug/ml at 25 degC after 4 days
Monilinia laxa [37] = test: Fungicidal activity against Monilinia laxa isolate MLX5 assessed as mycelial growth at 0.05 ug/ml at 25 degC after 4 days
Monilinia laxa [38] = test: Fungicidal activity against Monilinia laxa isolate MLK1 assessed as mycelial growth at 0.05 ug/ml at 25 degC after 4 days
Monilinia laxa [39] = test: Fungicidal activity against Monilinia laxa isolate MLK12 assessed as mycelial growth at 0.05 ug/ml at 25 degC after 4 days
Monilinia laxa [40] = test: Fungicidal activity against Monilinia laxa isolate MLA1 assessed as mycelial growth at 0.05 ug/ml at 25 degC after 4 days
Monilinia laxa [41] = test: Fungicidal activity against Monilinia laxa isolate MLP2 assessed as mycelial growth at 0.05 ug/ml at 25 degC after 4 days
Monilinia laxa [42] = test: Fungicidal activity against Monilinia laxa isolate MLC2 assessed as mycelial growth at 0.05 ug/ml at 25 degC after 4 days
Monilinia laxa [43] = test: Fungicidal activity against Monilinia laxa isolate MLBO5 assessed as mycelial growth at 0.05 ug/ml at 25 degC after 4 days
Monilinia laxa [44] = test: Fungicidal activity against Monilinia laxa isolate MLP4 assessed as mycelial growth at 0.05 ug/ml at 25 degC after 4 days
Monilinia laxa [45] = test: Fungicidal activity against Monilinia laxa isolate MLK12 assessed as mycelial growth at 5 ug/ml at 25 degC after 4 days
Monilinia laxa [46] = test: Fungicidal activity against Monilinia laxa isolate MLX5 assessed as mycelial growth at 5 ug/ml at 25 degC after 4 days
Monilinia laxa [47] = test: Fungicidal activity against Monilinia laxa isolate MLBO2 assessed as mycelial growth at 5 ug/ml at 25 degC after 4 days
Monilinia laxa [48] = test: Fungicidal activity against Monilinia laxa isolate MLX1 assessed as mycelial growth at 5 ug/ml at 25 degC after 4 days
Monilinia laxa [49] = test: Fungicidal activity against Monilinia laxa isolate MLG1 assessed as mycelial growth at 5 ug/ml at 25 degC after 4 days
Monilinia laxa [50] = test: Fungicidal activity against Monilinia laxa isolate MLP4 assessed as mycelial growth at 5 ug/ml at 25 degC after 4 days
Monilinia laxa [51] = test: Fungicidal activity against Monilinia laxa isolate MLK1 assessed as mycelial growth at 5 ug/ml at 25 degC after 4 days
Monilinia laxa [52] = test: Fungicidal activity against Monilinia laxa isolate MLA1 assessed as mycelial growth at 5 ug/ml at 25 degC after 4 days
Monilinia laxa [53] = test: Fungicidal activity against Monilinia laxa isolate MLC2 assessed as mycelial growth at 5 ug/ml at 25 degC after 4 days
Monilinia laxa [54] = test: Fungicidal activity against Monilinia laxa isolate MLP2 assessed as mycelial growth at 5 ug/ml at 25 degC after 4 days
Monilinia laxa [55] = test: Fungicidal activity against Monilinia laxa isolate MLBO5 assessed as mycelial growth at 5 ug/ml at 25 degC after 4 days

| SMILES | Activity (Monilinia laxa [12]) | Activity (Monilinia laxa [13]) | Activity (Monilinia laxa [14]) | Activity (Monilinia laxa [15]) | Activity (Monilinia laxa [16]) | Activity (Monilinia laxa [17]) | Activity (Monilinia laxa [18]) | Activity (Monilinia laxa [19]) | Activity (Monilinia laxa [20]) | Activity (Monilinia laxa [21]) | Activity (Monilinia laxa [22]) | Activity (Monilinia laxa [34]) | Activity (Monilinia laxa [35]) | Activity (Monilinia laxa [36]) | Activity (Monilinia laxa [37]) | Activity (Monilinia laxa [38]) | Activity (Monilinia laxa [39]) | Activity (Monilinia laxa [40]) | Activity (Monilinia laxa [41]) | Activity (Monilinia laxa [42]) | other results |
| --- | --- | --- | --- | --- | --- | --- | --- | --- | --- | --- | --- | --- | --- | --- | --- | --- | --- | --- | --- | --- | --- |
| CCCCNC(=O)n1c(NC(=O)OC)nc2ccccc21 [BENOMYL] |  |  |  |  |  |  |  |  |  |  |  |  |  |  |  |  |  |  |  |  | Activity (Monilinia laxa [1]): 100%; Activity (Monilinia laxa [2]): 0%; Activity (Monilinia laxa [3]): 0%; Activity (Monilinia laxa [4]): 100%; Activity (Monilinia laxa [5]): 0%; Activity (Monilinia laxa [6]): 0%; Activity (Monilinia laxa [7]): 100%; Activity (Monilinia laxa [8]): 80.01%; Activity (Monilinia laxa [9]): 100%; Activity (Monilinia laxa [10]): 0%; Activity (Monilinia laxa [11]): 0% |
| O=C(Nc1ccccc1-c1ccc(Cl)cc1)c1cccnc1Cl [BOSCALID] | 36.67% | 0% | 60.03% | 66.82% | 42.73% | 45.05% | 62.05% | 0% | 0% | 0% | 0% |  |  |  |  |  |  |  |  |  |  |
| CC1(C(=O)Nc2ccc(O)c(Cl)c2Cl)CCCCC1 [FENHEXAMID] |  |  |  |  |  |  |  |  |  |  |  |  |  |  |  |  |  |  |  |  | Activity (Monilinia laxa [23]): 21.05%; Activity (Monilinia laxa [24]): 10.03%; Activity (Monilinia laxa [25]): 45.83%; Activity (Monilinia laxa [26]): 23.05%; Activity (Monilinia laxa [27]): 50.34%; Activity (Monilinia laxa [28]): 21.82%; Activity (Monilinia laxa [29]): 50.35%; Activity (Monilinia laxa [30]): 17.65%; Activity (Monilinia laxa [31]): 25%; Activity (Monilinia laxa [32]): 0%; Activity (Monilinia laxa [33]): 60.05% |
| N#Cc1c[nH]cc1-c1cccc2c1OC(F)(F)O2 [FLUDIOXONIL] |  |  |  |  |  |  |  |  |  |  |  | 21.09% | 15.05% | 17.99% | 17.5% | 13.66% | 12.78% | 16.22% | 16.05% | 18.3% | Activity (Monilinia laxa [43]): 11.01%; Activity (Monilinia laxa [44]): 13.89% |
| CC(C)NC(=O)N1CC(=O)N(c2cc(Cl)cc(Cl)c2)C1=O [IPRODIONE] | 40.44% | 45.23% | 21.88% | 28.12% | 30.22% | 45.46% | 57.14% | 35.42% | 0% | 46.61% | 54.55% |  |  |  |  |  |  |  |  |  |  |
| COC(=O)N(OC)c1ccccc1COc1ccn(-c2ccc(Cl)cc2)n1 [PYRACLOSTROBIN] |  |  |  |  |  |  |  |  |  |  |  | 29.41% | 25% | 40.65% | 51.15% | 50.05% | 37.5% | 36.82% | 50% | 34.48% | Activity (Monilinia laxa [43]): 49.62%; Activity (Monilinia laxa [44]): 47.32% |
| CC(C)(C)C(O)(CCc1ccc(Cl)cc1)Cn1cncn1 (centres undefined) [TEBUCONAZOLE] |  |  |  |  |  |  |  |  |  |  |  | 30.77% | 25.3% | 48.34% | 65.45% | 22.24% | 30% | 47.41% | 34.29% | 39.39% | Activity (Monilinia laxa [43]): 49.65%; Activity (Monilinia laxa [44]): 35.71% |
| COC(=O)NC(=S)Nc1ccccc1NC(=S)NC(=O)OC [THIOPHANATE METHYL] |  |  |  |  |  |  |  |  |  |  |  |  |  |  |  |  |  |  |  |  | Activity (Monilinia laxa [45]): 100%; Activity (Monilinia laxa [46]): 0%; Activity (Monilinia laxa [47]): 0%; Activity (Monilinia laxa [48]): 100%; Activity (Monilinia laxa [49]): 0%; Activity (Monilinia laxa [50]): 93.75%; Activity (Monilinia laxa [51]): 100%; Activity (Monilinia laxa [52]): 0%; Activity (Monilinia laxa [53]): 95.25%; Activity (Monilinia laxa [54]): 0%; Activity (Monilinia laxa [55]): 0% |
| CCC(C)(NC(=O)c1cc(Cl)c(C)c(Cl)c1)C(=O)CCl (centres undefined) [ZOXAMIDE] | 43.33% | 0% | 0% | 59.09% | 48.95% | 0% | 0% | 36.05% | 44% | 0% | 39.09% |  |  |  |  |  |  |  |  |  |  |
